For this test, the target named is T1, histamine H2-receptors (Rattus norvegicus, UniProt P25102).
T1 construct: histamine H2 -receptors was tested in Sprague-Dawley male rats; from tissue; host or cells: stomach of the living anesthetized Sprague-Dawley rat (in vivo perfused stomach)
The test is described as follows: blocking activity of histamine H2-receptors: antagonism of histamine-induced gastric acid secretion (perfused stomach, pH recording) in anesthetized rats. It is filed as in vivo. Conditions: iv, rapid i.v. injection (right femoral vein), histamine hydrochloride infusion 0.0552 mg/min/kg, ethyl carbamate anesthesia, male Sprague-Dawley rats. The protocol:
The blocking qctivity of histamine H2 -receptors was tested in Sprague-Dawley male rats weighing 345±38 g. Animals which were subjected to a 24-hour hydric diet were tracheotomized under ethyl carbamate anesthesia (1 ml/100 g, 10% w/V i.p.). After cannulating the esophagus and stomach from duodenum, the gastric contents were drained. Then the esophageal cannual was connected to a peristaltic pump, under prior passage over a thermostatic batch at 37° C., and 1/800N sodium hydroxide solution in water flowed through. The cannula from the stomach was connected by a tube leading to a Ph-meter electrode, and the readings were graphically recorded. pH increase occurring by perfusion of the sodium hydroxide solution at 1.6 ml/min. rate is antagonized by continuous infusion of histamine hydrochloride through a catheter implanted in the right femoral vein (0.0552 mg/min/kg, 2 ml/hour). After calibrating the pH, test drugs are quickly injected into the right femoral vein. Under these conditions, the activities, expressed at ED50, of some compounds according to the present invention, are determined and set forth as follows, with cimetidine being employed for purposes of comparison: […]

Structures can show the parent of a compound that is named as a salt.

For orientation: ED50 means the midpoint of the dose-response relation.

T1 sequence (P25102 whole entry, the tested form may be a part): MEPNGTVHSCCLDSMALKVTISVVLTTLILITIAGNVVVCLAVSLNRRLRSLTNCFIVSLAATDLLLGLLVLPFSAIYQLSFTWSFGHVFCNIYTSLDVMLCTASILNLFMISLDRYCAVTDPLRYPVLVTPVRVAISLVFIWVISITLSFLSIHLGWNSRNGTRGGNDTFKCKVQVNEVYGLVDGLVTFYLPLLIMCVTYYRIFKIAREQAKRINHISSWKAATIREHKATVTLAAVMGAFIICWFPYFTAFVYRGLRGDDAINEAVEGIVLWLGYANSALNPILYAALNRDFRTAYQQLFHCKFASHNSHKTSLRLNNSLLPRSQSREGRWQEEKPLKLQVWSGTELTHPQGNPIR

In turn, `Cc1ccc(S(=O)(=O)N=CNCCSCc2csc(N=C(N)N)n2)cc1` [Ex. 1, hydrogen maleate, N-p-toluensulphonyl-N'-[2-[[[2-[(aminoiminomethyl)amino]-4-thiazolyl]methyl]thio]ethyl]formamidine hydrogen maleate] registered an ED50 of 0.7 µmol/kg.

Take `NC(N)=Nc1nc(CSCCNC=NS(=O)(=O)c2ccccc2)cs1` [Ex. 2, hydrogen maleate, N-benzenesulphonyl-N'-[2-[[[2-[(aminoiminomethyl)amino]-4-thiazolyl]methyl]thio]ethyl]formamidine hydrogen maleate]: the ED50 was 1.77 µmol/kg.

On to `CS(=O)(=O)N=CNCCSCc1csc(N=C(N)N)n1` [Ex. 3, hydrogen maleate, N-methansulphonyl-N'-[2-[[[2-[(aminoiminomethyl)amino]-4-thiazolyl]methyl]thio]ethyl]formamidine hydrogen maleate], for which the ED50 came out at 1.12 µmol/kg.

The compound `NC(N)=Nc1nc(CSCCNC=NS(=O)(=O)c2ccc([N+](=O)[O-])cc2)cs1` [Ex. 4, hydrogen maleate, N-p-nitrobenzenesulphonyl-N'-[2-[[[2-[(aminoiminomethyl)amino]-4-thiazolyl]methyl]thio]ethyl]formamidine hydrogen maleate] had an ED50 of 0.61 µmol/kg.

`NC(N)=Nc1nc(CSCCNC=NS(=O)(=O)c2ccc(Cl)cc2)cs1` [Ex. 5, hydrogen maleate, N-p-chlorobenzenesulphonyl--N'-[2-[[[2-[(aminoiminomethyl)amino]-4-thiazolyl]methyl]thio]ethyl]formamidine hydrogen maleate] registered an ED50 of 0.75 µmol/kg.

For the origin of these results see patent publication US4728655A, “Sulfonamidines, process for the production thereof and pharmaceutical compositions containing the same” (Ferrer Internacional S.A., priority 1984, dated 1988).
